In patent US20230202989A1, “COMPOUNDS” (JANSSEN PHARMACEUTICA NV, priority 2020, published 2023):
Like-named read-outs stand apart in the source and are kept apart here.

Experiments:
[1] = tested on: IL-1β; assay: PBMC assay: inhibition of IL-1β release after LPS stimulation (MSD); format: cell-based; conditions: human PBMCs, 100 ng/ml LPS for 6 hrs, MSD, 96 well plates, read-out: IL1β IC50
Summary of the method: (§1)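 TNF (EC50) and IL-1β (IC50) were quantified by MSD in supernatants after 6 h stimulation with 100 ng/ml LPS. Thawed healthy-donor PBMCs, 7.5×10^4 per well, were exposed to 1:3 compound dilutions for 30 min beforehand at 37 °C.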

[2] = tested on: TNF; assay: PBMC assay: TNF cytokine levels after LPS stimulation (MSD); format: cell-based; conditions: human PBMCs, 100 ng/ml LPS for 6 hrs
Summary of the method: as §1

SMILES	IC50 ([1]; Homo sapiens, PBMC, 6 h)	EC50 ([2]; Homo sapiens, PBMC, 6 h)	IC50 [1]	EC50 [2]
CC(C)c1nn(CC(=O)N[C@H]2CN(C3CC3)CC[C@H]2O)c(=O)c2ccc(C(F)(F)F)cc12 [Final Cpd X15, N-((3S,4R)-1-cyclopropyl-4-hydroxypiperidin-3-yl)-2-(4-isopropyl-1-oxo-6-(trifluoromethyl)phthalazin-2(1H)-yl)acetamide]	122 nM	> 20000 nM		
CCc1nn(CC(=O)N[C@H]2C[C@@](C)(O)C2)c(=O)c2ccc(C(F)(F)F)cc12 [Final Cpd 19]	140 nM	> 10000 nM		
CC(C)c1nn(CC(=O)Nc2ccc3ncn(C)c3c2)c(=O)c2ccc(C(F)(F)F)cc12 [Final Cpd X25]	178 nM	> 20000 nM		
CC(C)(F)c1nn(CC(=O)Nc2ccnnc2)c(=O)c2ccc(C(F)(F)F)cc12 [Final Cpd X155]	7910 nM	17600 nM		
CC(C)c1nn(CC(=O)N[C@@H]2CCCN(C3CC3)C2)c(=O)c2ccc(C(F)(F)F)cc12 [Final Cpd X10]	92 nM	> 20000 nM		
CCc1nn(CC(=O)Nc2ccnnc2)c(=O)c2ccc(C(F)(F)F)cc12 [Final Cpd X30]	219 nM	> 20000 nM		
C[C@]1(O)C[C@@H](NC(=O)Cn2nc(C(O)C(F)(F)F)c3cc(C(F)(F)F)ccc3c2=O)C1 (stereo partly drawn) [Final Cpd X84]	911 nM	> 20000 nM		
CC(C)c1nn(CC(=O)Nc2ccn3ccnc3n2)c(=O)c2ccc(C(F)(F)F)cc12 [Final Cpd X127]	2940 nM	> 20000 nM		
CCN1CCc2cc(NC(=O)Cn3nc(C(C)C)c4cc(C(F)(F)F)ccc4c3=O)ccc21 [Final Cpd X171]	> 20000 nM	> 20000 nM		
CC(C)c1nn(CC(=O)Nc2nc(Cl)c3nc[nH]c3n2)c(=O)c2ccc(C(F)(F)F)cc12 [Final Cpd X11, N-(6-chloro-9H-purin-2-yl)-2-(4-isopropyl-1-oxo-6-(trifluoromethyl)phthalazin-2(1H)-yl)acetamide]	105 nM	> 20000 nM		
CO[C@H]1CC[C@@H](NC(=O)Cn2nc(C(C)C)c3cc(C(F)(F)F)ccc3c2=O)CC1 [Final Cpd X131]	3090 nM	> 20000 nM		
CC(C)c1nn(CC(=O)N[C@H]2C[C@@H](C(C)(C)O)C2)c(=O)c2ccc(C(F)(F)F)cc12 [Final Cpd X108]	1630 nM	> 20000 nM		
CCN1CC[C@@H](NC(=O)Cn2nc(C(C)C)c3cc(C(F)(F)F)ccc3c2=O)[C@H](O)C1 (single isomer, unassigned) [Final Cpd X140]	4610 nM	> 20000 nM		
CC(C)c1ccc2c(=O)n(CC(=O)Nc3ccc4nncn4c3)nc(C(C)C)c2c1 [Final Cpd 33]	< 120 nM	> 10000 nM		
CC(C)c1nn(CC(=O)NC2(C)CC(F)(F)C2)c(=O)c2ccc(C(F)(F)F)cc12 [Final Cpd X126]	2940 nM	> 20000 nM		
CC(c1nn(CC(=O)N[C@H]2C[C@@](C)(O)C2)c(=O)c2ccc(C(F)(F)F)cc12)C(F)(F)F (stereo partly drawn) [Final Cpd X85]	915 nM	> 20000 nM		
CC(C)c1nn(CC(=O)Nc2ccc3c(c2)nnn3C)c(=O)c2ccc(C(F)(F)F)cc12 [Final Cpd X113]	1860 nM	> 20000 nM		
CC(C)c1nn(CC(=O)N[C@H]2CC[C@](C)(O)CC2)c(=O)c2ccc(C(F)(F)F)cc12 [Final Cpd X78]	861 nM	> 20000 nM		
CC(C)c1nn(CC(=O)Nc2ccc(C(F)F)nn2)c(=O)c2ccc(C(F)(F)F)cc12 [Final Cpd X176]	> 20000 nM	> 20000 nM		
CCc1nn(CC(=O)N[C@H]2CC[C@H](O)CC2)c(=O)c2ccc(Br)cc12 [Final Cpd 24, trans-2-(6-bromo-4-ethyl-1-oxo-phthalazin-2-yl)-N-(4-hydroxycyclohexyl)acetamide]	890 nM	> 10000 nM		
CC(C)c1nn(CC(=O)N[C@H]2CN(CC[C@H](C)O)CC[C@H]2O)c(=O)c2ccc(C(F)(F)F)cc12 [Final Cpd X81]	879 nM	> 20000 nM		

SMILES	IC50 ([1]; Homo sapiens, PBMC, 6 h)	EC50 ([2]; Homo sapiens, PBMC, 6 h)	IC50 [1]	EC50 [2]
CCc1nn(CC(=O)N[C@H]2CC[C@H](O)CC2)c(=O)c2ccc(C(C)C)cc12 [Final Cpd 28]	970 nM	> 10000 nM		
CO[C@H]1C[C@@H](NC(=O)Cn2nc(C(C)C)c3cc(C(F)(F)F)ccc3c2=O)C1 [Final Cpd X116]	2090 nM	> 20000 nM		
CC(C)c1nn(CC(=O)Nc2cc(Br)c3ncnn3c2)c(=O)c2ccc(C(F)(F)F)cc12 [Final Cpd X132]	3260 nM	> 20000 nM		
CCc1nn(CC(=O)Nc2ccc3nncn3c2)c(=O)c2ccc(C(F)(F)F)cc12 [Final Cpd X8]	75 nM	12200 nM		
CC(C)c1nn(CC(=O)Nc2ccc3ncnn3c2)c(=O)c2ccc(C(F)(F)F)cc12 [Final Cpd X38]	331 nM	> 20000 nM		
Cc1nnc2n1C[C@@H](NC(=O)Cn1nc(C(C)C)c3cc(C(F)(F)F)ccc3c1=O)CC2 (single isomer, unassigned) [Final Cpd X41]	351 nM	> 20000 nM		
COc1ccc2c(=O)n(CC(=O)Nc3ccncn3)nc(C(C)C)c2c1 [Final Cpd 10, 2-(4-isopropyl-6-methoxy-1-oxo-phthalazin-2-yl)-N-pyrimidin-4-yl-acetamide]	2320 nM	> 10000 nM		
CC(C)c1nn(CC(=O)Nc2ccncn2)c(=O)c2ccc(C3CC3)cc12 [Final Cpd 23]	287 nM	12000 nM		
CCc1nn(CC(=O)Nc2ccncn2)c(=O)c2ccc(C(C)C)cc12 [Final Cpd 6]	450 nM	> 10000 nM		
CC(C)c1nn(CC(=O)N[C@@H]2CCc3nncn3C2)c(=O)c2ccc(C(F)(F)F)cc12 [Final Cpd X106]	1610 nM	> 20000 nM		
CC(C)c1nn(CC(=O)Nc2ccc3nc(C(F)F)cn3n2)c(=O)c2ccc(C(F)(F)F)cc12 [Final Cpd X118]	2130 nM	> 20000 nM		
CC(C)c1nn(CC(=O)N[C@H]2C[C@@H](O)C2)c(=O)c2ccc(C(F)(F)F)cc12 [Final Cpd X67]	679 nM	> 20000 nM		
CC(O)c1nn(CC(=O)N[C@H]2C[C@@](C)(O)C2)c(=O)c2ccc(C(F)(F)F)cc12 (stereo partly drawn) [Final Cpd X75]	818 nM	> 20000 nM		
CCc1nn(CC(=O)Nc2ccc3nncn3c2)c(=O)c2ccc(Br)cc12 [Final Cpd 1]	115 nM	> 20000 nM		
CCN1C[C@H](F)C[C@@H](NC(=O)Cn2nc(C(C)C)c3cc(C(F)(F)F)ccc3c2=O)C1 [Final Cpd X37]	316 nM	> 20000 nM		
CCN1CC[C@@H](O)[C@@H](NC(=O)Cn2nc(C(C)C)c3cc(C(F)(F)F)ccc3c2=O)C1 [Final Cpd X6, N-((3S,4R)-1-ethyl-4-hydroxypiperidin-3-yl)-2-(4-isopropyl-1-oxo-6-(trifluoromethyl)phthalazin-2(1H)-yl)acetamide]	66 nM	> 20000 nM		
COC(C)c1nn(CC(=O)Nc2ccc3nncn3c2)c(=O)c2ccc(C(F)(F)F)cc12 (stereo not drawn) [Final Cpd X102]	1300 nM	> 20000 nM		
CC(C)c1nn(CC(=O)Nc2ccc3cn(C)nc3c2)c(=O)c2ccc(C(F)(F)F)cc12 [Final Cpd X123]	2700 nM	> 20000 nM		
O=C(Cn1nc(C2CC2)c2cc(C(F)(F)F)ccc2c1=O)N[C@H]1CN(C2CC2)CC[C@H]1O [Final Cpd X45]	384 nM	> 20000 nM		
CC(C)c1nn(CC(=O)Nc2ccc3c(c2)ncn3C)c(=O)c2ccc(C(F)(F)F)cc12 [Final Cpd X141]	4710 nM	> 20000 nM		

The next lines start with the values.

IC50 ([1]; Homo sapiens, PBMC, 6 h)	EC50 ([2]; Homo sapiens, PBMC, 6 h)	IC50 [1]	EC50 [2]	SMILES
270 nM	8080 nM			CC(C)c1nn(CC(=O)Nc2ccc3nncn3c2)c(=O)c2ccc(C(C)(C)C)cc12 [X-1048]
2800 nM	> 20000 nM			CC(C)c1nn(CC(=O)N[C@H]2C[C@@](C)(O)C2)c(=O)c2ccc(C3CC3(F)F)cc12 (stereo partly drawn) [X-1068]
502 nM	> 20000 nM			CC(O)c1nn(CC(=O)N[C@H]2C[C@@](C)(O)C2)c(=O)c2ccc(Br)cc12 (stereo partly drawn) [X-1080]
33 nM	19700 nM			CC(C)c1nn(CC(=O)Nc2ccc3nncn3c2)c(=O)c2ccc(C(C)(C)F)cc12 [X-1076]
60 nM	> 20000 nM			CC(C)c1nn(CC(=O)N[C@H]2C[C@@](C)(O)C2)c(=O)c2ccc(Cl)cc12 [X-1027]
220 nM	> 20000 nM			CCc1ccc2c(=O)n(CC(=O)Nc3ccc4nncn4c3)nc(C(C)C)c2c1 [X-1073]
41 nM	> 20000 nM			CC(C)c1nn(CC(=O)Nc2ccc3nncn3c2)c(=O)c2ccc(Cl)cc12 [X-1029]
2420 nM	> 20000 nM			COC(C)(C)c1ccc2c(=O)n(CC(=O)Nc3ccncn3)nc(C(C)C)c2c1 [X-1059]
31 nM	> 20000 nM			CCN1CCC[C@H](NC(=O)Cn2nc(C(C)C)c3cc(Br)ccc3c2=O)C1 (stereo in doubt) [X-1032]
848 nM	> 20000 nM			CC(C)c1nn(CC(=O)Nc2ccc3cnn(C)c3c2)c(=O)c2ccc(Br)cc12 [X-1033]
153 nM	> 20000 nM			Cc1nccc(NC(=O)Cn2nc(C(C)C)c3cc(C4(F)CC4)ccc3c2=O)c1F [X-1075]
32 nM	> 20000 nM			CC(C)c1nn(CC(=O)N[C@@H]2CCCN(C3CC3)C2)c(=O)c2ccc(Br)cc12 [X-1035]
		2520 nM	> 20000 nM	COc1ccc2c(=O)n(CC(=O)Nc3ccncn3)nc(C(C)C)c2c1 [X-1025]
4380 nM	8290 nM			CC(C)c1nn(CC(=O)Nc2ccncn2)c(=O)c2ccc(C(C)(C)O)cc12 [X-1044]
1910 nM	17500 nM			COC(C)(C)c1ccc2c(=O)n(CC(=O)Nc3ccc4nncn4c3)nc(C(C)C)c2c1 [X-1057]
2340 nM	> 20000 nM			CCc1nn(CC(=O)N[C@H]2C[C@@](C)(O)C2)c(=O)c2ccc(N(C)C)cc12 [X-1037]
